Reference: US7691860B2, “Sulfonamide derivatives” (Banyu Pharmaceutical Co., Ltd., priority 2004, dated 2010)

Target: T1, human NPY Y5 receptor (Homo sapiens, UniProt Q15761)
T1 construct: expressed in transfected cells; host or cells: COS-7, CHO and LM(tk-)
T1 sequence (Q15761 1-445): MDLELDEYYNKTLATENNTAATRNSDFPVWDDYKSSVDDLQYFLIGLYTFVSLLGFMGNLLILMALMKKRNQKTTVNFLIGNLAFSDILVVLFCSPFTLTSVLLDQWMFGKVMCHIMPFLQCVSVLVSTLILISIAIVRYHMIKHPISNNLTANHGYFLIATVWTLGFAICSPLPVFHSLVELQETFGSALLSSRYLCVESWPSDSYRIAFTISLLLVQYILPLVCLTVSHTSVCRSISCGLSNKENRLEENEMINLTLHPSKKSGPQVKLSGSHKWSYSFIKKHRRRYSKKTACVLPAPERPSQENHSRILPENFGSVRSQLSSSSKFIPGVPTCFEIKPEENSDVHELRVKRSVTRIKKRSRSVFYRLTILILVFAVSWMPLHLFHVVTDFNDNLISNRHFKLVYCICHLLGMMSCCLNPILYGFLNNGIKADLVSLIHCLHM
Assay: NPY binding inhibition test ([125I]peptide YY binding to membranes of NPY Y5 receptor expressing cells)
Conditions: membrane sample of NPY Y5 receptor expressed cells, 25° C., 2 hours, read-out: IC50 against specific peptide YY binding
Source text: The cDNA sequence (refer to the specification of WO 96/16542) encoding human NPY Y5 receptor was cloned into the expression vectors, pcDNA3, pRc/RSV (supplied by Invitrogen Co.) and pCI-neo (supplied by Promega Co.). The resultant expression vectors were transfected into the host cells, COS-7, CHO and LM(tk−) (American Type Culture Collection) using the cationic lipid method (refer to Proceedings of the National Academy of Sciences of the United States of America, vol. 84, pp. 7413 (1987)) to give NPY Y5 receptor expression cells. A membrane sample prepared from the NPY Y5 receptor expressed cells was incubated together with a test compound and 20,000 cpm of [^125I]peptide YY (supplied by NEN Co.) in an assay buffer (25 mM Tris buffer, pH 7.4, containing 10 mM of magnesium chloride, 1 mM of phenylmethylsulfonyl fluoride, 0.1% bacitracin and 0.5% bovine serum albumin) at 25° C. for 2 hours, followed by filtration through glassfilter GF/C. After washing with 5 mM Tris buffer (pH7.4) containing 0.3% BSA, radioactivity of the cake on the filter was measured. Non-specific binding was measured in the presence of 1 μM of peptide YY, and a 50% Inhibition Concentration (IC50 value) of the test compound against specific peptide YY binding was determined (refer to Endocrinology, vol. 131, pp. 2090 (1992)).

SMILES	IC50 [nM]
CC(C)(C)S(=O)(=O)N[C@H]1CC[C@H](c2nc3ccc(-c4ccccc4)cc3[nH]2)CC1 [Example 3, 2-(trans-4-tert-butylsulfonylamino-cyclohexyl)-5-phenylbenzimidazole]	0.67
CC(C)(C)S(=O)(=O)N[C@H]1CC[C@H](c2nc3nc(-c4ccccc4)ncc3[nH]2)CC1 [Example 9, 8-(trans-4-tert-butylsulfonylamino-cyclohexyl)-2-phenylpurine]	1.6
CC(C)(C)S(=O)(=O)NC1CCN(c2nc3ccc(-c4ccccc4)cc3[nH]2)CC1 [Example 17, 2-(4-tert-butylsulfonylaminopiperidin-1-yl)-5-phenylbenzimidazole]	1.5
CC(C)(C)S(=O)(=O)N[C@H]1CC[C@H](c2nc3nc(-c4ccccc4F)ccc3[nH]2)CC1 [Example 4, 2-(trans-4-tert-butylsulfonylamino-cyclohexyl)-5-(2-fluorophenyl)imidazo[4,5-b]pyridine]	1.4
CS(=O)(=O)Nc1ccccc1N1CCN(c2nc3nc(-c4ccccc4)ncc3[nH]2)CC1 [Example 22, 8-{1-(2-methylsulfonylaminophenyl)piperazin-4-yl}-2-phenylpurine]	1.7
CC(C)(C)S(=O)(=O)N[C@H]1CC[C@H](c2nc3nc(-c4ccc(F)cc4)ncc3[nH]2)CC1 [Example 7, 8-(trans-4-tert-butylsulfonylamino-cyclohexyl)-2-(4-fluorophenyl)purine]	1.2
